Experimental findings from EP0751957B1, “PEPTIDE FRAGMENTS OF MICROBIAL STRESS PROTEINS AND PHARMACEUTICAL COMPOSITION MADE THEREOF FOR THE TREATMENT AND PREVENTION OF INFLAMMATORY DISEASES” (priority 1994, dated 2004) are described below.

The subject of test [1] is Peptide-specific T cell lines. As to the kind of experiment: T cell proliferation assay, peptide-specific T cell lines from peptide-immunised rats. The test is classed as cell-based, Lewis rats. The following applies: for CPM T Cell Line: in vitro peptide 10 µg/ml. The method, then:
(§1) T cell proliferation assays: PLNC were cultured in triplicate in 200 µl flat bottom microtitre wells (Costar) at 2 x 10^5 cells per well with or without antigen. In initial experiments PLNC were tested for responsiveness to individual peptides at concentrations of 5 and 20 µg/ml, and Mt, hsp65 and PPD over a range of concentrations. Concanavalin A (2 µg/ml) was used as a positive control for T cell proliferation. Cultures were incubated for 96 h at 37°C in a humidified atmosphere of 5% CO2. Cultures were pulsed for the final 16 h with [^3H] TdR (Amersham, U.K., 1 uCi/well) and TdR uptake measured using a liquid scintillation β counter. Assays using T cell lines were performed as above using 2 x 10^4 line cells per well with irradiated (30 Gy) syngeneic accessory cells (either 3 x 10^5 splenocytes/well or 10^6 thymocytes/well). Results are expressed as mean counts per minute (cpm) of triplicate cultures. In experiments where responses to Ag were low, responses were considered significant if the stimulation index (S.I. = […]) was greater than two and Student's t tests gave p < 0.01.
T cell lines: T cell lines with specificity for mycobacterial hsp65 or peptides were generated by bulk stimulation of either hsp65-PLNC or Mt-PLNC. PLNC were cultured at 5 x 10^6/ml in culture medium supplemented with 2% normal rat serum (NRS) in the presence of 10 µg/ml Ag. After three days viable cells were harvested using a ficoll-isopaque gradient and cultured for a further four days in culture medium + 5% FCS and 5% TCGF (Con A-activated rat spleen supernatant). Seven days after initial stimulation lines were restimulated with irradiated spleen accessory cells and 10 µg/ml Ag in culture medium + NRS. Lines were maintained ir. this seven day restimulation cycle. Short term epitope-specific T cell lines were also generated from rats immunised with synthetic peptides. Peptide-PLNC were cultured as above in the presence of 10 µg/ml peptide.
Bulk stimulation generated T cell lines to eight of the nine peptides tested. These eight lines were tested for specificity after four in vitro restimulations (Table II). All responded to the immunising peptide and, to some extent, to hsp65.
(§2) T cell responses by immunisation with hsp65 peptides. Rats were immunised with synthetic peptides containing individual hsp65 epitopes (100 µg peptide/DDA per rat). Ten days later PLNC were isolated and tested for responses to overlapping peptides (20 µg/ml). Peptide-specific T cell lines were generated by bulk in vitro stimulation of PLNC with immunising peptide. Lines were tested for responses to overlapping peptides (10 µg/ml). […] Results are expressed as mean cpm of triplicate cultures. All SEM were less than 20%.

In test [2] the test system is primed lymph node cells (PLNC). As to the kind of experiment: T cell proliferation assay, PLNC from peptide-immunised rats. To be noted: in vitro peptide 20 µg/ml. The test is classed as cell-based, Lewis rats. Here is the method:
Immunisations with synthetic peptides and primed lymph node populations: Rats were immunised with 50 µg of synthetic peptide in PBS/DDA in each hind footpad (i.e. 50 µg/footpad, 100 µg/rat). Ten days later, draining popliteal lymph nodes were removed, disaggregated, washed three times and used as a source of primed lymph node cells (PLNC). In some experiments, PLNC were derived as pooled inguinal and popliteal lymph nodes from AA rats 35-42 days post Mt immunisation.
as §1
To determine whether immunisation of rats with synthetic peptides was effective at priming for T cell reactivity to hsp65 epitopes, in vitro proliferative responses following immunisation with 100 µg of peptide each containing individual T cell epitopes were examined. PLNC isolated ten days after immunisation were tested for response to the immunising peptide, overlapping peptides and to hsp65 (Table II). PLNC responses were observed after immunisation with seven of the nine peptides. Responses were not seen after immunisation with peptides 386-400 and 511-525.
as §2

Test [3] deals with RT1.B^1 MHC class II molecule (rat (Lewis)). As to the kind of experiment: cell-based or functional assay.
Where [4] appears, read: T cell line from 211-225-immunised PLNC.
Setting [5] is: PLNC 10 days after immunisation with peptide 211-225 (100 µg/DDA).
[6] abbreviates: T cell line from 86-100-immunised PLNC.
The mark [7] stands for this setting: PLNC 10 days after immunisation with peptide 86-100 (100 µg/DDA), mean of triplicates.
[8] abbreviates: T cell line from 256-270-immunised PLNC.
[9] abbreviates: PLNC 10 days after immunisation with peptide 256-270 (100 µg/DDA).
The mark [10] stands for this setting: T cell line from 446-460-immunised PLNC.
Setting [11] is: PLNC 10 days after immunisation with peptide 446-460 (100 µg/DDA).
Setting [12] is: T cell line from 511-525-immunised PLNC.
[13] abbreviates: PLNC 10 days after immunisation with peptide 511-525 (100 µg/DDA).
Setting [14] is: T cell line from 226-240-immunised PLNC.
The mark [15] stands for this setting: PLNC 10 days after immunisation with peptide 226-240 (100 µg/DDA).
Where [16] appears, read: T cell line from 396-410-immunised PLNC.
The mark [17] stands for this setting: PLNC 10 days after immunisation with peptide 396-410 (100 µg/DDA).
[18] abbreviates: T cell line from 176-190-immunised PLNC.
[19] abbreviates: PLNC 10 days after immunisation with peptide 176-190 (100 µg/DDA).

As for “206-220: synthetic 15mer, residues 206-220 of mycobacterial hsp65”, the “CPM T Cell Line” value in test [1] (setting [4]) is reported as 988 cpm. Besides, the “CPM PLNC” value in test [2] (setting [5]) is on record as 645 cpm.
With “81-95: synthetic 15mer, residues 81-95 of mycobacterial hsp65 (DDVAGDGTTTATVLA; UniProt P9WPE7 81-95, looked up, fragment)”, the “response of T cell line generated following immunisation with the 86-100 peptide” value in test [1] is listed as “responded”. For the same substance, in test [1] (setting [6]), the “CPM T Cell Line” value came to 15785 cpm. Besides, in test [2] (setting [7]), the “CPM PLNC” value turned out to be 15296 cpm.
In the case of “251-265: synthetic 15mer, residues 251-265 of mycobacterial hsp65”, the “CPM T Cell Line” value in test [1] (setting [8]) is given as 66063 cpm. Besides, in test [1] (irradiated syngeneic spleen APC), the “response of the line generated against M.256-270 (line P.m52)” value was “responded”. The “CPM PLNC” value in test [2] (setting [9]) was determined as 6391 cpm.
Turning to “441-455: synthetic 15mer, residues 441-455 of mycobacterial hsp65”, the “CPM T Cell Line” value in test [1] (setting [10]) turned out to be 17805 cpm. For the same substance, in test [2] (setting [11]), the “CPM PLNC” value was determined as 4715 cpm.
For the substance “91-105: synthetic 15mer, residues 91-105 of mycobacterial hsp65”, in test [1], the “response of T cell line generated following immunisation with the 86-100 peptide” value was “responded”. The “CPM T Cell Line” value in test [1] (setting [6]) is given as 18444 cpm. Moreover, in test [2] (setting [7]), the “CPM PLNC” value came out at 1999 cpm.
As for mycobacterial hsp65 peptide 211-225, in test [3], the reduction of peptide (1 µg/ml) induced T cell line proliferation by anti-RT1.B mAb 0X6 (10 µg/ml) is more than 70%.
For the substance “216-230: synthetic 15mer, residues 216-230 of mycobacterial hsp65”, in test [1] (setting [4]), the “CPM T Cell Line” value is reported as 102341 cpm. Further, the “CPM PLNC” value in test [2] (setting [5]) was 11117 cpm.
“506-520: synthetic 15mer, residues 506-520 of mycobacterial hsp65”: the “CPM T Cell Line” value in test [1] (setting [12]) is listed as 61293 cpm. In addition, in test [2] (setting [13]), the “CPM PLNC” value is recorded as 2754 cpm.
mycobacterial hsp65 peptide 176-190: the reduction of peptide (1 µg/ml) induced T cell line proliferation by anti-RT1.B mAb 0X6 (10 µg/ml) in test [3] is more than 70%.
On to “261-275: synthetic 15mer, residues 261-275 of mycobacterial hsp65”, for which, in test [1] (setting [8]), the “CPM T Cell Line” value was 646 cpm. In test [2] (setting [9]), the “CPM PLNC” value was found to be 2553 cpm.
For mycobacterial hsp65 peptide 396-410, the reduction of peptide (1 µg/ml) induced T cell line proliferation by anti-RT1.B mAb 0X6 (10 µg/ml) in test [3] was more than 70%.
Substance mycobacterial hsp65 peptide 446-460 came in with a reduction of peptide (1 µg/ml) induced T cell line proliferation by anti-RT1.B mAb 0X6 (10 µg/ml) in test [3] of more than 70%.
For “221-235: synthetic 15mer, residues 221-235 of mycobacterial hsp65”, in test [1] (setting [14]), the “CPM T Cell Line” value is given as 100306 cpm. In addition, the “CPM PLNC” value in test [2] (setting [15]) came to 7381 cpm.
Take “401-415: synthetic 15mer, residues 401-415 of mycobacterial hsp65 (AKAAVEEGIVAGGGV; UniProt P9WPE7 401-415, looked up, fragment)”: the “CPM T Cell Line” value in test [1] (setting [16]) is listed as 2011 cpm. In addition, in test [2] (setting [17]), the “CPM PLNC” value is recorded as 3211 cpm.
On to “171-185: synthetic 15mer, residues 171-185 of mycobacterial hsp65”, for which the “CPM T Cell Line” value in test [1] (setting [18]) stood at 1640 cpm. Moreover, the “CPM PLNC” value in test [2] (setting [19]) turned out to be 3082 cpm.
Consider “451-465: synthetic 15mer, residues 451-465 of mycobacterial hsp65”, for which the “CPM T Cell Line” value in test [1] (setting [10]) was found to be 1283 cpm. The “CPM PLNC” value in test [2] (setting [11]) was found to be 2130 cpm.
Regarding “516-530: synthetic 15mer, residues 516-530 of mycobacterial hsp65”, the “CPM T Cell Line” value in test [1] (setting [12]) was 1231 cpm. Also, the “CPM PLNC” value in test [2] (setting [13]) stood at 2821 cpm.
Turning to “231-245: synthetic 15mer, residues 231-245 of mycobacterial hsp65”, the “CPM T Cell Line” value in test [1] (setting [14]) is 862 cpm. In addition, in test [2] (setting [15]), the “CPM PLNC” value is 1655 cpm.
As to “181-195: synthetic 15mer, residues 181-195 of mycobacterial hsp65”, the “CPM T Cell Line” value in test [1] (setting [18]) was 1653 cpm. The “CPM PLNC” value in test [2] (setting [19]) stood at 1916 cpm.
Consider “391-405: synthetic 15mer, residues 391-405 of mycobacterial hsp65”, for which the “CPM T Cell Line” value in test [1] (setting [16]) stood at 39335 cpm. The “CPM PLNC” value in test [2] (setting [17]) was determined as 2280 cpm.
